The subject of this assay is T1, AnXltB.
T1 construct: gene xltB; whole-cell uptake
In words: […]-sugar initial uptake ([…] s) in yeast, Michaelis-Menten fit. As to conditions: labelled compound; transport into intact cells; 100 mM PBS pH 6.5, 30 °C; read-out: Xylose initial uptake kinetics / K m. The class given is cell-based, Aspergillus niger.

SMILES strings stand for the structures.

With `OC1OC[C@@H](O)[C@H](O)[C@H]1O` (stereo partly shown) [xylose], the Km came out at 15 ± 4.5 mM.

The values are drawn from publication PMC4955148, “Identification and functional characterization of novel xylose transporters from the cell factories Aspergillus niger and Trichoderma reesei” (Biotechnology for Biofuels, 2016).
